Measurements taken from patent publication US20250017912A1, “METHODS FOR DOWN-REGULATION AND UP-REGULATION OF PATHWAYS” (MedRegen, LLC, priority 2023, published 2025).
Where two headings read alike, the source gives them in different places.

Key:
[1] = Tacrolimus whole blood pharmacokinetics (LC-MS-MS) after SC Composition A; format: in vivo, human; settings: for Tacrolimus blood trough levels: 0.01 ml/kg dose group; for AUC / Cmax / Tmax / half-life: human, whole blood; for AUC: read-out: Tacrolimus AUCtau (GM); for Cmax: read-out: Tacrolimus Cmax (GM)
Method: Tacrolimus. Blood samples were obtained from all subjects in parallel as for plerixafor. Whole blood from each sample was stored in −80° C. condition until shipment. The analysis of K2EDTA whole blood for the quantitation of tacrolimus using a validated method by LC-MS-MS was performed by Worldwide Clinical Trials, Bioanalytical Services (Austin, TX, USA) in compliance with principles of GLP standards as referenced above.
Study data were collected and similar pharmacokinetic parameters as above were calculated using Analyst® (Version 1.4.2 or 1.6.1, Applied Biosystems/MDS Sciex) and evaluated with Watson Laboratory Information Management System™ (LIMS; Version 7.2.0.03, Thermo Fisher Scientific) software.

clinical = settings: human, in vivo
[2] = tested on: cell migration stimulated by CXCL12; settings: cited from earlier work
[3] = in vivo
CD34+HSCs = settings: cited from earlier work
[4] = sc, 0.005 mL/kg, Composition A 0.005 mL/kg SC QAD, Day 5
[5] = sc, 0.005 mL/kg, Composition A 0.005 mL/kg SC, Day 1
[6] = sc, 0.01 mL/kg, Composition A 0.01 mL/kg SC QAD, Day 5
[7] = sc, 0.01 mL/kg, Composition A 0.01 mL/kg SC, Day 1
[8] = sc, 0.02 mL/kg, Composition A 0.02 mL/kg SC QAD, Day 5
[9] = sc, 0.02 mL/kg, Composition A 0.02 mL/kg SC, Day 1

Compound: C=CC[C@@H]1/C=C(\C)C[C@H](C)C[C@H](OC)[C@H]2O[C@@](O)(C(=O)C(=O)N3CCCC[C@H]3C(=O)O[C@H](/C(C)=C/[C@@H]3CC[C@@H](O)[C@H](OC)C3)[C@H](C)[C@@H](O)CC1=O)[C@H](C)C[C@@H]2OC [Tacrolimus]
- Tacrolimus blood trough levels ([1]; day 1): less than 2 ng/ml
- Tacrolimus blood trough levels ([1]; day 5): < 3 ng/mL
- Tacrolimus Cmax and AUC versus dose ([1]; Composition A 0.005, 0.01, 0.02 mL/kg, Day 1 and QAD for 5 days): increased in a dose-proportional manner
- Tacrolimus Ctrough (GM) ([1]; Composition A 0.005 mL/kg SC QAD, Day 5): 0.88 ng/mL
- Tacrolimus Ctrough (GM) ([1]; Composition A 0.005 mL/kg SC, Day 1): 0.57 ng/mL
- Tacrolimus median Ctrough ([1]; Composition A 0.005 mL/kg, Day 1): 0.58 ng/mL
- Tacrolimus Ctrough ([1]; Composition A 0.005 mL/kg, Day 5): 0.90 ng/mL
- Tacrolimus Ctrough (GM) ([1]; Composition A 0.01 mL/kg SC QAD, Day 5): 1.89 ng/mL
- Tacrolimus Ctrough (GM) ([1]; Composition A 0.01 mL/kg SC, Day 1): 1.45 ng/mL
- Tacrolimus median Ctrough ([1]; Composition A 0.01 mL/kg, Day 1): 1.48 ng/mL
- Tacrolimus Ctrough ([1]; Composition A 0.01 mL/kg, Day 5): 1.99 ng/mL
- Tacrolimus Ctrough (GM) ([1]; Composition A 0.02 mL/kg SC QAD, Day 5): 2.94 ng/mL
- Tacrolimus Ctrough (GM) ([1]; Composition A 0.02 mL/kg SC, Day 1): 2.12 ng/mL
- Tacrolimus median Ctrough ([1]; Composition A 0.02 mL/kg, Day 1): 2.24 ng/mL
- Tacrolimus Ctrough ([1]; Composition A 0.02 mL/kg, Day 5): 3.19 ng/mL
- AUC [1, 4]: 70.1 ng·h/mL
- Cmax [1, 4]: 2.09 ng/mL
- Tmax ([1]; sc, 0.005 mL/kg, Composition A 0.005 mL/kg SC QAD, Day 5, read-out: Tacrolimus Tmax (Median)): 10 h
- half-life ([1]; sc, 0.005 mL/kg, Composition A 0.005 mL/kg SC QAD, Day 5, read-out: Tacrolimus t1/2 (GM) (converted)): 24.9 h
- AUC [1, 5]: 46.4 ng·h/mL
- Cmax [1, 5]: 1.47 ng/mL
- Tmax ([1]; sc, 0.005 mL/kg, Composition A 0.005 mL/kg SC, Day 1, read-out: Tacrolimus Tmax (Median)): 7.5 h
- half-life ([1]; sc, 0.005 mL/kg, Composition A 0.005 mL/kg SC, Day 1, read-out: Tacrolimus t1/2 (GM) (converted)): 23.8 h
- AUC [1, 6]: 171 ng·h/mL
- Cmax [1, 6]: 5.37 ng/mL
- Tmax ([1]; sc, 0.01 mL/kg, Composition A 0.01 mL/kg SC QAD, Day 5, read-out: Tacrolimus Tmax (Median)): 5.5 h
- half-life ([1]; sc, 0.01 mL/kg, Composition A 0.01 mL/kg SC QAD, Day 5, read-out: Tacrolimus t1/2 (GM) (converted)): 29.5 h
- AUC [1, 7]: 105 ng·h/mL
- Cmax [1, 7]: 3.15 ng/mL
- Tmax ([1]; sc, 0.01 mL/kg, Composition A 0.01 mL/kg SC, Day 1, read-out: Tacrolimus Tmax (Median)): 12 h
- half-life ([1]; sc, 0.01 mL/kg, Composition A 0.01 mL/kg SC, Day 1, read-out: Tacrolimus t1/2 (GM) (converted)): 37.8 h
- AUC [1, 8]: 237 ng·h/mL
- Cmax [1, 8]: 7.91 ng/mL
- Tmax ([1]; sc, 0.02 mL/kg, Composition A 0.02 mL/kg SC QAD, Day 5, read-out: Tacrolimus Tmax (Median)): 2 h
- half-life ([1]; sc, 0.02 mL/kg, Composition A 0.02 mL/kg SC QAD, Day 5, read-out: Tacrolimus t1/2 (GM) (converted)): 30.6 h
- AUC [1, 9]: 152 ng·h/mL
- Cmax [1, 9]: 4.49 ng/mL
- Tmax ([1]; sc, 0.02 mL/kg, Composition A 0.02 mL/kg SC, Day 1, read-out: Tacrolimus Tmax (Median)): 8.01 h
- half-life ([1]; sc, 0.02 mL/kg, Composition A 0.02 mL/kg SC, Day 1, read-out: Tacrolimus t1/2 (GM) (converted)): 36.4 h
- half-life ([1]; subcutaneous, Composition A 0.005, 0.01, 0.02 mL/kg, Days 1 and 5, read-out: Tacrolimus GM t1/2): 24 to 38 h
- Tmax ([1]; subcutaneous, single dose Day 1 and QAD dosing for 5 days, all doses, read-out: Tacrolimus median Tmax): 2 to 12 h
- Mean tacrolimus trough levels ([1]; intermediate dose of MRG-001 (0.01 mL/kg)): 1.8 ng/mL
- Mean tacrolimus trough levels ([1]; lowest dose of MRG-001 (0.005 ml/kg)): 0.8 ng/mL
- Peak levels of tacrolimus ([1]; middle dose cohort (FIG. 1C)): 2 to 3 ng/mL

Compound: c1cc(CN2CCCNCCNCCCNCC2)ccc1CN1CCCNCCNCCCNCC1 [Plerixafor, 1,1′-[1,4-phenylenebis(methylene)]bis-1,4,8,11-tetraazacyclo-tetradecane]
- half-life (clinical; Plerixafor geometric mean t1/2): 3 to 6 h
- half-life (clinical; sc, Plerixafor t1/2 (GM)): 3.29 h
- IC50 [2]: 51 ± 17 nM
- Plerixafor median time to Cmax ([3]; human): 1 to 3 h
- Plerixafor elimination ([3]; human, 48 h): fully eliminated at 48 hours
- Plerixafor Cmax and AUC versus dose [3]: increased in a dose-proportional manner
- Peak CD34+ (CD34+HSCs; high dose plerixafor (0.48 mg/kg)): 32.2 c/μL
- CD34+HSCs mobilized at peak levels (CD34+HSCs; normal dose of plerixafor (0.24 mg/kg)): 27.8 µL⁻¹
